In US20210340130A1, “Compositions and methods for treating attention deficit disorders” (priority 2016, published 2021):

How the values were obtained:
Assay type in all cases: in vivo
Swiss Webster mice = assay: PTZ Proconvulsant test; conditions: doses of 30 mg/kg or less, p.o.
Description: Follow on studies of CX717 and 1739 are continuing, employing additional well-known models for ADHD drug efficacy, coupled with a variety of ongoing safety studies. Preliminary safety studies already completed have included a range of toxicity studies focusing on critical convulsant risks widely observed for previously-studied ampakines. Using the well known PTZ Proconvulsant test, non-GLP safety studies were conducted to examine proconvulsant activity of CX717. Swiss Webster mice (n=12/group) were dosed with CX717 (3, 10 or 30 mg/kg p.o.), vehicle (0.5% methocel p.o.) or a positive control, CGS8216 (10 mg/kg in 70% PEG300: 30% water i.p.). Thirty minutes later, the GABA-A antagonist, pentylenetetrazol (PTZ) was infused in the tail vein until tonic seizures were observed. The time at which the first clonic and tonic seizure was observed was noted and used to determine the dose of PTZ necessary to induce both clonic and tonic seizure.

adult patients with ADHD = assay: Phase 2 randomized, double-blind, 2-period crossover trial in adults with ADHD
Description: *This phase 2 study evaluated the efficacy, tolerability and safety of CX717 in the treatment of adult patients with ADHD. The study was designed and executed as a randomized, double-blind, multi-center, 2-period crossover study comparing 2 doses of CX717 (200 mg, or 800 mg, BID) with placebo. Each treatment period lasted 3 weeks with a 2-week washout in between. Subjects met DSM-IV criteria for adult ADHD and had moderate to severe symptoms. The primary efficacy measure was the change from baseline on the ADHD Rating Scale (ADHD-RS) with adult ADHD prompts.
The present study further examined the clinical efficacy, tolerability and safety of CX717 as a drug treatment for adults with ADHD. […] Each treatment period was 3 weeks in duration with a 2-week washout in between. The study design was modeled after several similarly published ADHD studies with atomoxetine and stimulants, (Spencer et al.) with sample sizes in the mid 20s. Since this is the first such study with CX7171 in ADHD, it is assumed that efficacy would be achieved using historical assumptions in effect size, therefore, a total of 60 subjects were to be randomized.
All patients met DSM-IV criteria for adult ADHD, established by the Adult ADHD Clinical Diagnostic Scale (ACDS) Version 1.2. All patients gave written informed consent prior to enrollment and the conduct of the study was approved by either the […] Review Board (IRB) at each site or by the central IRB. Each subject had at least moderately severe ADHD symptoms (ADHD-RS score of ≥22; Clinician's Global Impression of Severity [CGI-S] score of ≥4). Each subject was male, and between 18-50 years old, inclusively. Male patients were selected because the necessary reproductive toxicology studies that would have allowed women of childbearing potential to be included in the study had not been completed.
CX717 capsules were administered orally as 200 mg BID or 800 mg BID doses. […] The study was divided into a series of periods: screening period—up to 4 weeks, treatment period 1-3 weeks; wash-out period—2 weeks; treatment period 2-3 weeks; follow-up period—approximately 1 week.
The primary efficacy outcome measure was the comparison of each dose of CX717 versus placebo on the change from baseline in ADHD symptoms as measured by the ADHD-RS at Week 3. Secondary efficacy parameters included comparisons of each dose of CX717 versus placebo for the ADHD-RS Inattentiveness Subscale Score of the ADHD-RS.
Safety was evaluated by adverse events (AEs), clinical laboratory tests, vital signs, physical examination, and electrocardiograms (ECGs).
The primary efficacy endpoint was the change from baseline in the ADHD-RS total score. Variables for the primary endpoint as well as for the secondary endpoint were based on within patient comparisons of high dose with placebo and low dose with placebo. The analyses treated subjects receiving high dose or placebo in either order as a unique entity and similarly, subjects who received low dose or placebo in either order as a unique group of its own. The primary efficacy analysis utilized the paired t-test. Descriptive statistics (number of observations, mean, standard deviation, median, minimum and maximum values) for the total score and the change from baseline were calculated by treatment group and visit and the last value was presented for both the intent-to-treat (ITT) and per protocol (PP) populations. All hypotheses testing for change from Baseline of scores, except testing for significant interaction, were performed at the 2-tailed 5% alpha significance level. P-values, based on 2-tailed tests, were rounded to 1 more decimal place than the standard deviation, up to a maximum of 3 decimal places; p-values <0.001 were presented as ‘<0.001’ in all tables.

Rat (Lister) = assay: 5 Choice serial reaction time task
Description: Another useful animal model for evaluating ampakine activity is the Five Choice Serial Reaction Time Task in Rats. This assay requires rats to provide a single nose poke in response to a light stimulus presented in one of five locations within a 9-hole chamber. With a correct response a reward is delivered that the rat collects from the food magazine at the rear of the chamber. The withdrawal of its head from the food magazine initiates a short inter-trial interval followed by the presentation of the next randomly presented stimulus. An incorrect response results in a time out period (non-reinforcement) followed by the initiation of a new trial. Groups of 12 rats were used in this study, and all rats received all treatments using a randomized sequence. For evaluation using this model, CX1739 was selected as the exemplary low impact ampakine, administered at doses of 3 and 10 mg/kg i.p. 20 min prior to the start of the study.

O=C(c1ccc2nonc2c1)N1CCOCC1 [CX717, 1-(benzofurazan-5-ylcarbonyl)morpholine]
proconvulsant activity: dose of PTZ required to elicit a seizure (Swiss Webster mice): did not decrease the dose of PTZ required to elicit a seizure
ADHD-RS total and subscales versus placebo (adult patients with ADHD; 200 mg BID): no statistically significant differences
deaths or serious adverse events (adult patients with ADHD; 200 mg or 800 mg BID for 3 weeks): No deaths or serious adverse events
total ADHD-RS, repeated measures analysis at endpoint (adult patients with ADHD; 800 mg BID vs placebo, p=0.002): superior efficacy compared to placebo
ADHD-RS hyperactivity subscale, repeated measures analysis (adult patients with ADHD; 800 mg BID vs placebo, p=0.017): superior efficacy compared to placebo
ADHD-RS inattentiveness subscale, repeated measures analysis (adult patients with ADHD; 800 mg BID vs placebo, p=0.027): superior efficacy compared to placebo
mean change from baseline of ADHR-RS total score (adult patients with ADHD; 800 mg, 504 h): −9.95
ADHD-RS hyperactivity subscale mean difference vs placebo (adult patients with ADHD; active dose vs. placebo, last value): 1.94
tolerability and safety parameters (adult patients with ADHD; either dose (200 mg or 800 mg BID), 3 weeks): well tolerated with no clinically significant changes in cardiovascular and other safety parameters
overall incidence of treatment-emergent adverse events (TEAEs) (adult patients with ADHD; high dose (800 mg BID), placebo high dose 56%): 75%
ADHD-RS hyperactivity subscale mean difference vs placebo (adult patients with ADHD; high dose, Week 1): 2.00
ADHD-RS hyperactivity subscale mean score (change from baseline) (adult patients with ADHD; high dose, Week 1, ITT, placebo −2.22, p=0.192): −4.22
ADHD-RS hyperactivity subscale mean difference vs placebo (adult patients with ADHD; high dose, Week 3): 3.18
ADHD-RS hyperactivity subscale mean score (change from baseline) (adult patients with ADHD; high dose, Week 3, ITT, placebo −2.78, p=0.050): −5.68
difference from placebo in mean change of ADHR-RS total score (adult patients with ADHD; high dose, after 3 weeks): −4.73
ADHD-RS hyperactivity subscale mean difference vs placebo (adult patients with ADHD; high dose, last value): 3.00
most frequently reported adverse events (adult patients with ADHD; in vivo): Sleep disturbances and headache
ADHD-RS hyperactivity subscale versus placebo, repeated measures (adult patients with ADHD; low dose): No difference
ADHD-RS total score versus placebo (adult patients with ADHD; low dose (200 mg BID)): did not differ from placebo
overall incidence of treatment-emergent adverse events (TEAEs) (adult patients with ADHD; low dose (200 mg BID), placebo low dose 55%): 73%

CN(C(=O)c1ccc2nonc2c1)C1CCOCC1 [CX1739, N-Methyl-N-tetrahydro-2H-pyran-4-yl-[2,1,3]-benzoxadiazole-5-carboxamide]
latency to correct responses (Rat (Lister); 10 mg/kg): significantly reduced
omissions (Rat (Lister); 10 mg/kg): significant improvement
accuracy of responding (Rat (Lister); 3 and 10 mg/kg ip): significantly improved
number of premature responses (Rat (Lister); 3 and 10 mg/kg ip): reduced
Minimum Effective Dose (Rat (Lister); IP, dose range 3-10 mg/kg): 3 mg/kg
